Data from US4430328A, “Ruminant lactation improvement” (Eli Lilly and Company, priority 1982, dated 1984).

Key:
Holstein cows = assay: nine-week comparative activity and persistency test of glycopeptides; assay type: in vivo; details: 600 mg/head/day
Protocol: Another test was carried out to determine the comparative activity of glycopeptides and their persistency in altering milk production. Holstein cows were assigned as they calved to blocks of […] cows each. Within each block a random order of treatments was assigned. A nine-week study was started two weeks following calving. All cows underwent a one week preliminary period during which they received corn silage-concentrate, grain, hay and water. During the following eight week period, in addition to the normal feed ration, one group of six animals received no treatment (controls), another group of six animals received 600 mg/head/day actaplanin, and a third group of six cows received 600 mg/head/day of glycopeptide A35512B. Average daily milk production, milk composition, and persistency of milk production were analyzed. The data in Table VI are the averages for the daily determinations for the entire nine week trial period. The table reports average milk production and milk composition of nontreated controls and treated groups. The persistency values were calculated by dividing the average milk production during the eight week treatment period by average production during the preliminary non-treatment period. Persistency values express how well the treatment groups performed after initialization of treatment compared to performance before treatment initialization. Normal persistency for the trial was expected to be about 94 to about 96 percent. All treatment groups had higher persistencies, thus indicating an observable response to treatment even during a short term.

dairy cows = details: cited from earlier work

SMILES	Milk Composition Fat (Holstein cows) [%]	Milk Composition Protein (Holstein cows) [%]	Milk Composition Solids (Holstein cows) [%]	protein content compared to non-treated controls (Holstein cows)	Milk Produced (Holstein cows; average of daily determinations, nine week trial) [pounds/day]	Persistency (Holstein cows; average production in eight week treatment period divided by preliminary period) [%]	fat content of milk (dairy cows)	fat-corrected-milk production (dairy cows)	volume of milk produced (dairy cows)
COC(=O)[C@H]1NC(=O)[C@H]2NC(=O)[C@H](NC(=O)[C@@H]3NC(=O)C4NC(=O)[C@H](NC(=O)[C@H](N)c5cccc(O)c5Oc5cc(O[C@@H]6O[C@H](C)[C@H](O)[C@H](O)[C@@H]6O)c(Cl)c4c5)[C@H](O)c4ccc(cc4)Oc4cc3cc(c4O[C@@H]3O[C@H](CO)[C@@H](O)[C@@H](O[C@@H]4O[C@@H](C)[C@@H](O)[C@@H](O)[C@H]4O)[C@H]3O)Oc3ccc(cc3)[C@H]2O[C@H]2C[C@](C)(N)[C@H](O)[C@H](C)O2)c2ccc(O[C@H]3O[C@@H](CO)[C@H](O)[C@@H](O)[C@@H]3O)c(c2)-c2c(O)cc(O)cc21 [A35512B]	3.36	3.36	11.44	may be enhanced	56.0	99.4			
CC[C@@]1([C@@H]2O[C@@H]([C@H]3O[C@@](O)(CO)[C@H](C)C[C@@H]3C)C[C@@H]2C)CC[C@H]([C@]2(C)CC[C@]3(C[C@H](O)[C@@H](C)[C@@H]([C@@H](C)[C@@H](OC)[C@H](C)C(=O)O)O3)O2)O1 [monensin]							significantly reduced	unchanged	increase
